Laboratory results taken from US20020137736A1, “Novel compounds” (priority 1999, published 2002).

melting point: 138 to 140 °C
Structure (SMILES): CC(C)Oc1ccc(NC(=N)c2cccs2)cc1CN1CCCC1 [Example 21, N-[4-Isopropoxy-3-(1-pyrrolidinylmethyl)phenyl]-2-thiophenecarboximidamide]
